Counter-ions that a name gives are not always drawn.
Assays:
[1] = target: T1, recombinant human 5-HT6 receptor (Homo sapiens, UniProt P50406); assay: Radioligand binding, [3H]LSD competition in HEK293 cell membranes; settings: [3H]LSD displacement, pH 7.4, 37° C., read-out: pKi for the 5-HT6 receptor (converted)
T1 construct: expressed in transfected cells
Protocol: (§1) The binding activity of compounds of this invention in vitro was determined as follows. Duplicate determinations of 5-HT6 ligand affinity were made by competing for binding of [^3H]LSD in cell membranes derived from HEK293 cells stably expressing recombinant human 5-HT6 receptor. Duplicate determinations of 5-HT2A ligand affinity were made by competing for binding of [^3H]Ketanserin (3-(2-(4-(4-fluorobenzoyl)piperidinol)ethyl)-2,4(1H,3H)-quinazolinedione) in cell membranes derived from CHO-K1 cells stably expressing recombinant human 5-HT2A receptor.
(§2) Assay tubes containing [^3H] LSD or [^3H]Ketanserin (5 nM), competing ligand, and membrane were incubated in a shaking water bath for 75 min. at 37° C. (for 5-HT6) or 60 min. at 32° C. (for 5-HT2A), filtered onto Packard GF-B plates (pre-soaked with 0.3% PEI) using a Packard 96 well cell harvester and washed 3 times in ice cold 50 mM Tris-HCl. Bound [^3H] LSD or [^3H]Ketanserin were determined as radioactive counts per minute using Packard TopCount.
(§3) Displacement of [^3H]LSD or [^3H]Ketanserin from the binding sites was quantified by fitting concentration-binding data to a 4-parameter logistic equation:
(§4) [formula] where Hill is the Hill slope, [ligand] is the concentration of competing radioligand and IC50 is the concentration of radioligand producing half-maximal specific binding of radioligand. […]

[2] = target: T2, recombinant human 5-HT2A receptor (Homo sapiens, UniProt P28223); assay: Radioligand binding, [3H]Ketanserin competition in CHO-K1 cell membranes; settings: [3H]Ketanserin displacement, pH 7.4, 32° C., read-out: pKi for the 5-HT2A receptor (converted)
T2 construct: expressed in transfected cells
Protocol: as §1, §2, §3, §4

T1 sequence (P50406 whole entry): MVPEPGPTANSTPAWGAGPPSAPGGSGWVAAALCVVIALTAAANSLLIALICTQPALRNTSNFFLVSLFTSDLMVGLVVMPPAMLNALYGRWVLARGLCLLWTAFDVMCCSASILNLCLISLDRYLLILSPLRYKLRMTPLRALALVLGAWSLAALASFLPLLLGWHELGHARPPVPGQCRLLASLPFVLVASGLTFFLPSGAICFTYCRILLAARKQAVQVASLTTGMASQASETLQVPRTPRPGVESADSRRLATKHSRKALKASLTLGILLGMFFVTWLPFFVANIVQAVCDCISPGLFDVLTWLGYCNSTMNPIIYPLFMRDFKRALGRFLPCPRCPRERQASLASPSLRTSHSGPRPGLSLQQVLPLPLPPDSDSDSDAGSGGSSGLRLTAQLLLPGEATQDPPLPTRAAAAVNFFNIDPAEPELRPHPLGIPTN
T2 sequence (P28223 whole entry): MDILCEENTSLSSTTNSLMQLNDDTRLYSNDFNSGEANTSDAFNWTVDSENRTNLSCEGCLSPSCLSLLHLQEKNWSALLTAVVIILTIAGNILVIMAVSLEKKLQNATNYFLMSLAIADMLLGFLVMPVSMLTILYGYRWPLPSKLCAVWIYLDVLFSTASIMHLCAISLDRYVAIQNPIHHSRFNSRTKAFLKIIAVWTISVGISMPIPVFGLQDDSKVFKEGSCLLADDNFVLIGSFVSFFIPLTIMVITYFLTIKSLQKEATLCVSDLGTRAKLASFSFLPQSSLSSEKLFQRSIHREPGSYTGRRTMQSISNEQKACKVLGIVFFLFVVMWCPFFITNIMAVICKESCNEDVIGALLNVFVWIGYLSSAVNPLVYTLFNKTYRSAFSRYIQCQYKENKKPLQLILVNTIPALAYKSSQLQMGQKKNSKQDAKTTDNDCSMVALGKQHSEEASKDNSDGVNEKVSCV

Row | SMILES | melting point | also measured
1 | NCCNC(=O)N1CCOc2ccc(S(=O)(=O)c3ccccc3)cc21 | 172.4 to 181.3 °C | 
2 | O=S(=O)(c1ccccc1)c1ccc2c(c1)OCCN2CCn1ccnc1 | 61.5 to 64.4 °C | 
3 | CN(C)CCN1C(=O)COc2cc(S(=O)(=O)c3ccccc3)ccc21 (as salt: HCl) | 232.9 to 235.3 °C | 
4 | O=S(=O)(c1ccccc1)c1ccc2c(c1)N(CC1=NCCN1)CCO2 (as salt: HCl) | 114 to 116.1 °C | 
5 | CN(C)CCCN1C(=O)COc2cc(S(=O)(=O)c3ccccc3)ccc21 (as salt: HCl) | 194 to 196.4 °C | 
6 | NCCN1CCOc2cc(S(=O)(=O)c3ccccc3)ccc21 (as salt: HCl) | 261 to 265.1 °C | 
7 | CN(C)CCCCN1C(=O)COc2cc(S(=O)(=O)c3ccccc3)ccc21 (as salt: HCl) | 179 to 180 °C | 
8 | O=C1COc2cc(S(=O)(=O)c3ccccc3)ccc2N1CC1=NCCN1 (as salt: HCl) | 113.7 to 116 °C | 
9 | O=C1COc2ccc(S(=O)(=O)c3ccccc3)cc2N1CC1=NCCN1 (as salt: HCl) | 250 to 252 °C | 
10 | NCCN1CCOc2ccc(S(=O)(=O)c3ccccc3)cc21 (as salt: HCl) | 242.9 to 245.9 °C | 
11 | CNCCC(=O)N1CCOc2ccc(S(=O)(=O)c3ccccc3)cc21 (as salt: hydrochloride) | 208.3 to 214.7 °C | 
12 | CN(C)CC(=O)N1CCOc2ccc(S(=O)(=O)c3ccccc3)cc21 (as salt: hydrochloride) | 199 to 203 °C | 
13 | CNCCCN1CCOc2cc(S(=O)(=O)c3ccccc3)ccc21 (as salt: hydrochloride) | 188.3 to 193.2 °C | 
14 | NCCN1C(=O)COc2cc(S(=O)(=O)c3ccccc3)ccc21 (as salt: hydrochloride) | 206.9 to 209.1 °C | 
15 | CC1(C)CN(c2ccncc2)c2ccc(S(=O)(=O)c3ccccc3)cc2O1 (as salt: hydrochloride) | 112.7 to 120.4 °C | 
16 | CC1(C)CN(C2CCNCC2)c2ccc(S(=O)(=O)c3ccccc3)cc2O1 (as salt: hydrochloride) | 284.9 to 296.3 °C | 
17 | O=S(=O)(c1ccccc1)c1ccc2c(c1)OCCN2C1CCNCC1 [Compound 22, 7-Benzenesulfonyl-4-piperidin-4-yl-3,4-dihydro-2H-benzo[1,4]oxazine] |  | Ki [1]: ~0.105 nM; Ki [2]: ~8.13 nM

Second part, led by results:

Row | melting point | SMILES | also measured
18 | 44 to 47 °C | O=C(CC1=NCCN1)N1CCOc2cc(S(=O)(=O)c3ccccc3)ccc21 | 
19 | 61.2 to 67.3 °C | N=C(N)NC(=O)N1CCOc2cc(S(=O)(=O)c3ccccc3)ccc21 | 
20 | 114 to 116.1 °C | O=C(CC1=NCCN1)N1CCOc2ccc(S(=O)(=O)c3ccccc3)cc21 | 
21 | 202.3 to 203.6 °C | O=C(CC1=NCCN1)N1CCOc2cc(S(=O)(=O)c3ccccc3)ccc21 (as salt: HCl) | 
22 | 233 to 235.5 °C | CNCC(=O)N1CCOc2ccc(S(=O)(=O)c3ccccc3)cc21 (as salt: hydrochloride) | 
23 | 220.9 to 221.3 °C | NCCNC(=O)N1CCOc2cc(S(=O)(=O)c3ccccc3)ccc21 (as salt: hydrochloride) | 
24 | 148.5 to 151.6 °C | N=C(N)NC(=O)N1CCOc2cc(S(=O)(=O)c3ccccc3)ccc21 (as salt: hydrochloride) | 
25 | 182 to 186.6 °C | O=C(C1CNC1)N1CCOc2cc(S(=O)(=O)c3ccccc3)ccc21 (as salt: hydrochloride) | 
26 | 109.2 to 110.5 °C | O=C(C1CCNC1)N1CCOc2cc(S(=O)(=O)c3ccccc3)ccc21 (centres unmarked) (as salt: hydrochloride) | 
27 | 130.5 to 136.7 °C | O=C(C1CCCNC1)N1CCOc2cc(S(=O)(=O)c3ccccc3)ccc21 (centres unmarked) (as salt: hydrochloride) | 
28 | 122.8 to 127.6 °C | O=S(=O)(c1ccccc1)c1ccc2c(c1)OCCN2C1CCNC1 (centres unmarked) (as salt: hydrochloride) | 

Reference: patent US7378415B2, “Benzoxazine and quinoxaline derivatives and uses thereof” (Roche Palo Alto LLC, priority 2004, dated 2008)
